Values of other authors as cited in article PMC7673724 (Science Advances, 2020).

Tested on: Rubisco
Settings: control used to normalize array signal (one unit of binding)

Binding to Rubisco of the positive control peptide: known to bind to Rubisco
Sequence: TRSVLPANWRQELESLRN [control EPYC1 peptide]
